Patent US20240199676A1, “ANTIVIRAL COMPOUNDS AND METHODS OF MAKING AND USING THE SAME” (Gilead Sciences, Inc., priority 2022, published 2024)

Each molecule was assayed on Respiratory syncytial virus recombinant with luciferase (RSV-Luc5) in NHBE cells (assay: NHBE RSV-Luc5 384-well Assay (EC50 RSVFLUC NHBE-384, Ex. U)). Conditions: human respiratory syncytial virus, 72 h, read-out: EC50 RSV FLUC NHBE 384 (per Ex. U).
Format: cell-based
Source text: Example U. NHBE RSV-Luc5 384-well Assay (EC50 RSVFLUC NHBE-384)
Normal Human Bronchial Epithelial (NHBE) cells were purchased from Lonza (Walkersville, MD Cat #CC2540) and maintained in BEGM Bronchial Epithelial Cell Growth Medium BulletKit (Lonza CC-3170).
Cells were thawed, expanded, and were used for experiments at passage 2. Respiratory syncytial virus recombinant with luciferase (RSV-Luc5) (≥1×10^7 Infectious Units/ml (IU/ml) determined by TCID50) was purchased from Microbiologics (Saint Cloud, MN). Viral replication was determined in NHBE cells in the following manner.
Compounds are prepared in 100% DMSO in 384-well polypropylene plates (Greiner, Monroe, NC, Cat #784201) with 8 compounds per plate in grouped replicates of 4 at 10 serially diluted concentrations (1:3). The serially diluted compounds were transferred to low dead volume Echo plates (Labcyte, Sunnyvale, CA, Cat #LP-0200).
The test compounds were spotted to 384-well assay plates (Greiner, Monroe, NC, Cat#781091) at 200 nL per well. NHBE cells were harvested and suspended in BEGM Bronchial Epithelial Cell Growth Medium BulletKit and seeded to the pre-spotted assay plates at 5,000 cells per well in 30 μL. RSV-Luc5 virus was diluted in BEGM Bronchial Epithelial Cell Growth Medium BulletKit at 500,000 Infectious Units (IU) per mL and 10 μL per well was added to the assay plates containing cells and compounds, for an MOI of 1. The assay plates were incubated for 3 days at 37° C. and 5% CO2. At the end of incubation, One-Glo reagent (Promega, Madison, WI, Cat #E6120) was prepared. The assay plates and One-Glo reagent were equilibrated to room temperature for at least 15 minutes. 40 μL per well of One-Glo reagent was added and the plates were incubated at room temperature for 15 minutes before reading the luminescence signal on an EnVision multimode plate reader (Perkin Elmer, Waltham, MA). Remdesivir was used as positive control and DMSO was used as negative control. Values were normalized to the positive and negative controls (as 0% and 100% replication, respectively) and data was fitted using non-linear regression analysis by Gilead's dose response tool. The EC50 value for each compound was defined as the concentration reducing the viral replication by 50%.
Molecule N#C[C@]1(COC(=O)C2CCC2)O[C@@H](c2ccc3c(N)ncnn23)[C@H](O)[C@@H]1O [Compound 8, ((2R,3S,4R,5S)-5-(4-aminopyrrolo[2,1-f][1,2,4]triazin-7-yl)-2-cyano-3,4-dihydroxytetrahydrofuran-2-yl)methyl cyclobutanecarboxylate] has an EC50 of 8.79 µM.
CCC(CC)C(=O)OC[C@@]1(C#N)O[C@@H](c2ccc3c(N)ncnn23)[C@H](O)[C@@H]1O [Compound 9, ((2R,3S,4R,5S)-5-(4-aminopyrrolo[2,1-f][1,2,4]triazin-7-yl)-2-cyano-3,4-dihydroxytetrahydrofuran-2-yl)methyl 2-ethylbutanoate] was tested, and the EC50 was 8.69 µM.
CCC(=O)OC[C@@]1(C#N)O[C@@H](c2ccc3c(N)ncnn23)[C@H](O)[C@@H]1O [Compound 5, ((2R,3S,4R,5S)-5-(4-aminopyrrolo[2,1-f][1,2,4]triazin-7-yl)-2-cyano-3,4-dihydroxytetrahydrofuran-2-yl)methyl propionate] showed an EC50 of 8.89 µM.
With Cc1ccc(C(=O)OC[C@@]2(C#N)O[C@@H](c3ccc4c(N)ncnn34)[C@H](O)[C@@H]2O)cc1 [Compound 14, ((2R,3S,4R,5S)-5-(4-aminopyrrolo[2,1-f][1,2,4]triazin-7-yl)-2-cyano-3,4-dihydroxytetrahydrofuran-2-yl)methyl 4-methylbenzoate] the EC50 was 8.82 µM.
CC(C)[C@H](N)C(=O)OC[C@@]1(C#N)O[C@@H](c2ccc3c(N)ncnn23)[C@H](O)[C@@H]1O [Compound 12, ((2R,3S,4R,5S)-5-(4-aminopyrrolo[2,1-f][1,2,4]triazin-7-yl)-2-cyano-3,4-dihydroxytetrahydrofuran-2-yl)methyl L-valinate] was tested, and the EC50 was 11.5 µM.
CC(C)(C)CC(=O)OC[C@@]1(C#N)O[C@@H](c2ccc3c(N)ncnn23)[C@H](O)[C@@H]1O [Compound 13, ((2R,3S,4R,5S)-5-(4-aminopyrrolo[2,1-f][1,2,4]triazin-7-yl)-2-cyano-3,4-dihydroxytetrahydrofuran-2-yl)methyl 3,3-dimethylbutanoate] showed an EC50 of 10.9 µM.
In the case of CCCC(=O)OC[C@@]1(C#N)O[C@@H](c2ccc3c(N)ncnn23)[C@H](O)[C@@H]1O [Compound 6, ((2R,3S,4R,5S)-5-(4-aminopyrrolo[2,1-f][1,2,4]triazin-7-yl)-2-cyano-3,4-dihydroxytetrahydrofuran-2-yl)methyl butyrate], the EC50 is reported as 7.71 µM.
For CC(C)(C)C(=O)OC[C@@]1(C#N)O[C@@H](c2ccc3c(N)ncnn23)[C@H](O)[C@@H]1O [Compound 10, ((2R,3S,4R,5S)-5-(4-aminopyrrolo[2,1-f][1,2,4]triazin-7-yl)-2-cyano-3,4-dihydroxytetrahydrofuran-2-yl)methyl pivalate], the EC50 was 8.08 µM.
N#C[C@]1(COC(=O)c2ccccc2)O[C@@H](c2ccc3c(N)ncnn23)[C@H](O)[C@@H]1O [Compound 2, ((2R,3S,4R,5S)-5-(4-aminopyrrolo[2,1-f][1,2,4]triazin-7-yl)-2-cyano-3,4-dihydroxytetrahydrofuran-2-yl)methyl benzoate] was tested, and the EC50 was 7.47 µM.
Work on N#C[C@]1(COC(=O)C2CC2)O[C@@H](c2ccc3c(N)ncnn23)[C@H](O)[C@@H]1O [Compound 7, ((2R,3S,4R,5S)-5-(4-aminopyrrolo[2,1-f][1,2,4]triazin-7-yl)-2-cyano-3,4-dihydroxytetrahydrofuran-2-yl)methyl cyclopropanecarboxylate] yielded an EC50 of 9.65 µM.
Work on CC(C)C(=O)OC[C@@]1(C#N)O[C@@H](c2ccc3c(N)ncnn23)[C@H](O)[C@@H]1O [Compound 1, ((2R,3S,4R,5S)-5-(4-aminopyrrolo[2,1-f][1,2,4]triazin-7-yl)-2-cyano-3,4-dihydroxytetrahydrofuran-2-yl)methyl isobutyrate] yielded an EC50 of 22.1 µM.
In the case of CCC(CC)C(=O)Nc1ncnn2c([C@@H]3O[C@](C#N)(COC(=O)C(CC)CC)[C@@H](O)[C@H]3O)ccc12 [Compound 11, ((2R,3S,4R,5S)-2-cyano-5-(4-(2-ethylbutanamido)pyrrolo[2,1-f][1,2,4]triazin-7-yl)-3,4-dihydroxytetrahydrofuran-2-yl)methyl 2-ethylbutanoate], the EC50 is reported as 25.2 µM.
CC(C)C(=O)OC[C@@]1(C#N)O[C@@H](c2ccc3c(N)ncnn23)[C@H](OC(=O)C(C)C)[C@@H]1OC(=O)C(C)C [Compound 20, (2R,3S,4S,5S)-5-(4-aminopyrrolo[2,1-f][1,2,4]triazin-7-yl)-2-cyano-2-((isobutyryloxy)methyl)tetrahydrofuran-3,4-diyl bis(2-methylpropanoate)] gave an EC50 of 31.7 µM.
Work on N#C[C@]1(COC(=O)C2CCCC2)O[C@@H](c2ccc3c(N)ncnn23)[C@H](O)[C@@H]1O [Compound 18, ((2R,3S,4R,5S)-5-(4-aminopyrrolo[2,1-f][1,2,4]triazin-7-yl)-2-cyano-3,4-dihydroxytetrahydrofuran-2-yl)methyl cyclopentanecarboxylate] yielded an EC50 of 8.99 µM.
CC(=O)OC[C@@]1(C#N)O[C@@H](c2ccc3c(N)ncnn23)[C@H](O)[C@@H]1O [Compound 4, ((2R,3S,4R,5S)-5-(4-aminopyrrolo[2,1-f][1,2,4]triazin-7-yl)-2-cyano-3,4-dihydroxytetrahydrofuran-2-yl)methyl acetate] showed an EC50 of 11 µM.
For N#C[C@]1(COC(=O)CC2CCC2)O[C@@H](c2ccc3c(N)ncnn23)[C@H](O)[C@@H]1O [Compound 16, ((2R,3S,4R,5S)-5-(4-aminopyrrolo[2,1-f][1,2,4]triazin-7-yl)-2-cyano-3,4-dihydroxytetrahydrofuran-2-yl)methyl 2-cyclobutylacetate], the EC50 was 9.53 µM.
In the case of CC1(C(=O)OC[C@@]2(C#N)O[C@@H](c3ccc4c(N)ncnn34)[C@H](O)[C@@H]2O)CC1 [Compound 15, ((2R,3S,4R,5S)-5-(4-aminopyrrolo[2,1-f][1,2,4]triazin-7-yl)-2-cyano-3,4-dihydroxytetrahydrofuran-2-yl)methyl 1-methylcyclopropane-1-carboxylate], the EC50 is reported as 8.8 µM.
CC(C)CC(=O)OC[C@@]1(C#N)O[C@@H](c2ccc3c(N)ncnn23)[C@H](O)[C@@H]1O [Compound 3, ((2R,3S,4R,5S)-5-(4-aminopyrrolo[2,1-f][1,2,4]triazin-7-yl)-2-cyano-3,4-dihydroxytetrahydrofuran-2-yl)methyl 3-methylbutanoate] was tested, and the EC50 was 8.07 µM.
CC1(C)CC(C(=O)OC[C@@]2(C#N)O[C@@H](c3ccc4c(N)ncnn34)[C@H](O)[C@@H]2O)C1 [Compound 17, ((2R,3S,4R,5S)-5-(4-aminopyrrolo[2,1-f][1,2,4]triazin-7-yl)-2-cyano-3,4-dihydroxytetrahydrofuran-2-yl)methyl 3,3-dimethylcyclobutane-1-carboxylate] was tested, and the EC50 was 8.09 µM.

What follows are molecules tested on Respiratory syncytial virus recombinant with luciferase (RSV-Luc5) in HEp-2 cells (assay: HEp-2 RSV-Luc5 384-well Assay (EC50 RSVFLUC Hep2-384, Ex. R)). Conditions: human respiratory syncytial virus, HEp-2, 72 h, read-out: RSV Hep-2 FLuc EC50 (per Ex. R).
Format: cell-based
Source text: Example R. HEp-2 RSV-Luc5 384-well Assay (EC50 RSVFLUC Hep2-384)
HEp-2 cell line was purchased from ATCC (Manassas, VA Cat #CCL-23) and maintained in Dulbecco's […] (DMEM) (Corning, New York, NY, Cat #15-018CM) supplemented with 10% fetal bovine serum (FBS) (Hyclone, Logan, UT, Cat #SH30071-03) and 1× Penicillin-Streptonycin-L-Glutamine (Corning, New York, NY, Cat #30-009-CI). Cells were passaged 2 times per week to maintain sub-confluent densities and were used for experiments at passage 5-20. Respiratory syncytial virus recombinant with luciferase (RSV-Luc5) direct pelleted virus (≥1×107 TCID50/ml) was purchased from Microbiologics (Saint Cloud, MN). Viral replication was determined in HEp-2 cells in the following manner.
Compounds are prepared in 384-well polypropylene plates (Greiner, Monroe, NC, Cat#784201) with 8 compounds per plate in grouped replicates of 4 at 10 serially diluted concentrations (1:3).
HEp-2 cells were suspended in DMEM (supplemented with 10% FBS and 1× Penicillin-Streptomycin-L-Glutanine) and 60 uL of 4,000 cells per well were seeded into 384-well plates (Greiner, Monroe, NC, Cat #781080) using Biotek MultiFlo dispenser. […] Viral replication was then assessed by measuring luminescence signal using and Envision plate reader. […]
In the case of CC(C)C(=O)OC[C@@]1(C#N)O[C@@H](c2ccc3c(N)ncnn23)[C@H](O)[C@@H]1O [Compound 1, ((2R,3S,4R,5S)-5-(4-aminopyrrolo[2,1-f][1,2,4]triazin-7-yl)-2-cyano-3,4-dihydroxytetrahydrofuran-2-yl)methyl isobutyrate], the EC50 is reported as 10.4 µM.
